# What was measured:
# Type in all cases: in vivo
# [1] = tested on: redroot pigweed (Amaranthus retroflexus, AMARE); test: Pre-emerge test, greenhouse herbicide activity screening; conditions: rating scale 0-100, 14 days after application
# Outline: (§1)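 Visual ratings on a 0-100 scale (0 no damage, 100 all plants dead) were taken at 14 days after treatment. Rates of 15-1000 g ai/ha in acetone, 187 l/ha, were sprayed onto soil one day after planting (pre-emerge) or onto 2-3 leaf plants with 0.25% v/v surfactant (post-emerge).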
# [2] = tested on: barnyardgrass (Echinochloa crus-galli, ECHCG); test: as above; conditions: rating scale 0-100, 14 days after application
# Outline: as §1
# [3] = tested on: common ragweed (Ambrosia artemisizfolia L., AMBEL); test: as above; conditions: rating scale 0-100, 14 days after application
# Outline: as §1
# [4] = tested on: green foxtail (Setaria viridis, SETVI); test: as above; conditions: rating scale 0-100, 14 days after application
# Outline: as §1
# [5] = tested on: ivyleaf morningglory (Ipomoea hederacea, IPOHE); test: as above; conditions: rating scale 0-100, 14 days after application
# Outline: as §1
# [6] = tested on: johnsongrass (Sorghum halepense, SORHA); test: as above; conditions: rating scale 0-100, 14 days after application
# Outline: as §1
# [7] = tested on: lambsquarters (Chenopodium album, CHEAL); test: as above; conditions: rating scale 0-100, 14 days after application
# Outline: as §1
# [8] = tested on: large crabgrass (Digitaria sanguinalis, DIGSA); test: as above; conditions: rating scale 0-100, 14 days after application
# Outline: as §1
# [9] = tested on: sicklepod (Cassia obtusifolia, CASOB); test: as above; conditions: rating scale 0-100, 14 days after application
# Outline: as §1
# [10] = tested on: velvetleaf (Abutilon theophrasti, ABUTH); test: as above; conditions: rating scale 0-100, 14 days after application
# Outline: as §1
# [11] = tested on: field corn (Zea mays L., var. Dekalb 535, CORN); test: Pre-emerge test, crop safety; conditions: rating scale 0-100, 14 days after application
# Outline: as §1
# [12] = tested on: upland rice (Oryza sp., var. Tebonnet, RICE); test: Pre-emerge test, crop safety; conditions: rating scale 0-100, 14 days after application
# Outline: as §1
# [13] = tested on: barnyardgrass (Echinochloa crus-galli, ECHCG); test: Post-emerge test, greenhouse herbicide activity screening; conditions: rating scale 0-100 (0 no damage, 100 complete death), 14 days after application
# Outline: (§2)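 Compounds in acetone were track-sprayed at 15-1000 g ai/ha (187 l/ha) on sandy loam pots: pre-emerge one day after seeding, post-emerge at 2-3 leaf stage with 0.25% v/v non-ionic surfactant. Phytotoxicity was rated 14 days later on a 0 (no damage) to 100 (complete death) scale.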
# [14] = tested on: green foxtail (Setaria viridis, SETVI); test: as above; conditions: rating scale 0-100 (0 no damage, 100 complete death), 14 days after application
# Outline: as §2
# [15] = tested on: ivyleaf morningglory (Ipomoea hederacea, IPOHE); test: as above; conditions: rating scale 0-100 (0 no damage, 100 complete death), 14 days after application
# Outline: as §2
# [16] = tested on: johnsongrass (Sorghum halepense, SORHA); test: as above; conditions: rating scale 0-100 (0 no damage, 100 complete death), 14 days after application
# Outline: as §2
# [17] = tested on: lambsquarters (Chenopodium album, CHEAL); test: as above; conditions: rating scale 0-100 (0 no damage, 100 complete death), 14 days after application
# Outline: as §2
# [18] = tested on: large crabgrass (Digitaria sanguinalis, DIGSA); test: as above; conditions: rating scale 0-100 (0 no damage, 100 complete death), 14 days after application
# Outline: as §2
# [19] = tested on: redroot pigweed (Amaranthus retroflexus, AMARE); test: as above; conditions: rating scale 0-100 (0 no damage, 100 complete death), 14 days after application
# Outline: as §2
# [20] = tested on: sicklepod (Cassia obtusifolia, CASOB); test: as above; conditions: rating scale 0-100 (0 no damage, 100 complete death), 14 days after application
# Outline: as §2
# [21] = tested on: velvetleaf (Abutilon theophrasti, ABUTH); test: as above; conditions: rating scale 0-100 (0 no damage, 100 complete death), 14 days after application
# Outline: as §2
# [22] = tested on: field corn (Zea mays L., var. Dekalb 535, CORN); test: Post-emerge test, crop safety; conditions: rating scale 0-100 (0 no damage, 100 complete death), 14 days after application
# Outline: as §1
# [23] = tested on: upland rice (Oryza sp., var. Tebonnet, RICE); test: Post-emerge test, crop safety; conditions: rating scale 0-100 (0 no damage, 100 complete death), 14 days after application
# Outline: as §1
compound,measurement,setting,value
CCOC(=O)CCc1c(OC)c(Cl)cc(F)c1-n1c(=O)cc(C(F)(F)F)n(C)c1=O [14-1],"Pre-emerge herbicidal activity, phytotoxicity rating AMARE",[1]; 63 g ai/ha,100
same,"Pre-emerge herbicidal activity, phytotoxicity rating AMARE",[1]; 250 g ai/ha,100
same,"Pre-emerge herbicidal activity, phytotoxicity rating ECHCG",[2]; 63 g ai/ha,15
same,"Pre-emerge herbicidal activity, phytotoxicity rating ECHCG",[2]; 250 g ai/ha,30
same,"Pre-emerge herbicidal activity, phytotoxicity rating AMBEL",[3]; 63 g ai/ha,0
same,"Pre-emerge herbicidal activity, phytotoxicity rating AMBEL",[3]; 250 g ai/ha,0
same,"Pre-emerge herbicidal activity, phytotoxicity rating SETVI",[4]; 63 g ai/ha,15
same,"Pre-emerge herbicidal activity, phytotoxicity rating SETVI",[4]; 250 g ai/ha,55
same,"Pre-emerge herbicidal activity, phytotoxicity rating IPOHE",[5]; 63 g ai/ha,30
same,"Pre-emerge herbicidal activity, phytotoxicity rating IPOHE",[5]; 250 g ai/ha,75
same,"Pre-emerge herbicidal activity, phytotoxicity rating SORHA",[6]; 63 g ai/ha,0
same,"Pre-emerge herbicidal activity, phytotoxicity rating SORHA",[6]; 250 g ai/ha,90
same,"Pre-emerge herbicidal activity, phytotoxicity rating CHEAL",[7]; 63 g ai/ha,98
same,"Pre-emerge herbicidal activity, phytotoxicity rating CHEAL",[7]; 250 g ai/ha,100
same,"Pre-emerge herbicidal activity, phytotoxicity rating DIGSA",[8]; 63 g ai/ha,40
same,"Pre-emerge herbicidal activity, phytotoxicity rating DIGSA",[8]; 250 g ai/ha,85
same,"Pre-emerge herbicidal activity, phytotoxicity rating CASOB",[9]; 63 g ai/ha,0
same,"Pre-emerge herbicidal activity, phytotoxicity rating CASOB",[9]; 250 g ai/ha,0
same,"Pre-emerge herbicidal activity, phytotoxicity rating ABUTH",[10]; 63 g ai/ha,75
same,"Pre-emerge herbicidal activity, phytotoxicity rating ABUTH",[10]; 250 g ai/ha,100
same,"Pre-emerge phytotoxicity rating, crop damage CORN",[11]; 63 g ai/ha,0
same,"Pre-emerge phytotoxicity rating, crop damage CORN",[11]; 250 g ai/ha,10
same,"Pre-emerge phytotoxicity rating, crop damage RICE",[12]; 63 g ai/ha,15
same,"Pre-emerge phytotoxicity rating, crop damage RICE",[12]; 250 g ai/ha,45
same,"Post-emerge Herbicidal Activity, phytotoxicity rating ECHCG",[13]; Rate 63 g ai/ha,85
same,"Post-emerge Herbicidal Activity, phytotoxicity rating ECHCG",[13]; Rate 250 g ai/ha,95
same,"Post-emerge Herbicidal Activity, phytotoxicity rating SETVI",[14]; Rate 63 g ai/ha,40
same,"Post-emerge Herbicidal Activity, phytotoxicity rating SETVI",[14]; Rate 250 g ai/ha,70
same,"Post-emerge Herbicidal Activity, phytotoxicity rating IPOHE",[15]; Rate 63 g ai/ha,85
same,"Post-emerge Herbicidal Activity, phytotoxicity rating IPOHE",[15]; Rate 250 g ai/ha,100
same,"Post-emerge Herbicidal Activity, phytotoxicity rating SORHA",[16]; Rate 63 g ai/ha,25
same,"Post-emerge Herbicidal Activity, phytotoxicity rating SORHA",[16]; Rate 250 g ai/ha,75
same,"Post-emerge Herbicidal Activity, phytotoxicity rating CHEAL",[17]; Rate 63 g ai/ha,80
same,"Post-emerge Herbicidal Activity, phytotoxicity rating CHEAL",[17]; Rate 250 g ai/ha,98
same,"Post-emerge Herbicidal Activity, phytotoxicity rating DIGSA",[18]; Rate 63 g ai/ha,80
same,"Post-emerge Herbicidal Activity, phytotoxicity rating DIGSA",[18]; Rate 250 g ai/ha,95
same,"Post-emerge Herbicidal Activity, phytotoxicity rating AMARE",[19]; Rate 63 g ai/ha,100
same,"Post-emerge Herbicidal Activity, phytotoxicity rating AMARE",[19]; Rate 250 g ai/ha,100
same,"Post-emerge Herbicidal Activity, phytotoxicity rating CASOB",[20]; Rate 63 g ai/ha,55
same,"Post-emerge Herbicidal Activity, phytotoxicity rating CASOB",[20]; Rate 250 g ai/ha,70
same,"Post-emerge Herbicidal Activity, phytotoxicity rating ABUTH",[21]; Rate 63 g ai/ha,85
same,"Post-emerge Herbicidal Activity, phytotoxicity rating ABUTH",[21]; Rate 250 g ai/ha,98
same,Post-emerge phytotoxicity rating CORN (crop damage),[22]; Rate 63 g ai/ha,85
same,Post-emerge phytotoxicity rating CORN (crop damage),[22]; Rate 250 g ai/ha,100
same,Post-emerge phytotoxicity rating RICE (crop damage),[23]; Rate 63 g ai/ha,40
same,Post-emerge phytotoxicity rating RICE (crop damage),[23]; Rate 250 g ai/ha,80
